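1) Cells in 96-well plates. 2) Compound, 48 h, 5 concentrations. 3) Linear interpolation between surrounding doses. 4) Unreached endpoint = highest concentration. GI50 is the concentration that inhibits growth by half.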 Activity calls are given as the source filed them. No stated cut-off is given here; in the data, active = GI50 up to about 1.1 µM and inactive = higher.
What was measured:
Experiment in all cases: inhibition of tumour cell growth, NCI panel, 48 h
[1] = system: MDA-MB-435
[2] = system: EKVX
[3] = system: A498
[4] = system: HOP-62
[5] = system: ACHN
[6] = system: K562
[7] = system: U-251
[8] = system: OVCAR-8
[9] = system: NCI-H522
[10] = system: NCI-H23
[11] = system: BT-549
[12] = system: SW-620
[13] = system: SK-MEL-28
[14] = system: RPMI-8226
[15] = system: MDA-MB-231
[16] = system: NCI-H226
[17] = system: HCT-116
[18] = system: SK-OV-3
[19] = system: T47D

Row | SMILES | GI50 [1] | GI50 [2] | GI50 [3] | GI50 [4] | GI50 [5] | GI50 [6] | GI50 [7] | GI50 [8] | GI50 [9] | GI50 [10] | GI50 [11] | GI50 [12] | GI50 [13] | GI50 [14] | GI50 [15] | GI50 [16] | GI50 [17] | GI50 [18] | GI50 [19]
1 | CSc1nc2c(c(=O)n1C)N=C(c1ccccc1)[C@H](C(CC(=O)c1ccccc1)c1ccccc1)C(c1ccccc1)N2 (some centres undefined) | > 100 µM (inactive) | 15.8 µM (inactive) | > 100 µM (inactive) | > 100 µM (inactive) | > 100 µM (inactive) | 54.5 µM (inactive) | > 100 µM (inactive) | > 100 µM (inactive) | 20.5 µM (inactive) | > 100 µM (inactive) | > 100 µM (inactive) | 26.1 µM (inactive) | > 100 µM (inactive) | 19 µM (inactive) | > 100 µM (inactive) | > 100 µM (inactive) | 32 µM (inactive) |  | 
2 | CC1OC(=O)c2ccccc2NC1=O (centres undefined) | > 100 µM (inactive) | > 100 µM (inactive) | > 100 µM (inactive) | > 100 µM (inactive) | > 100 µM (inactive) | > 100 µM (inactive) | > 100 µM (inactive) | > 100 µM (inactive) | > 100 µM (inactive) | > 100 µM (inactive) | > 100 µM (inactive) | > 100 µM (inactive) | > 100 µM (inactive) | > 100 µM (inactive) | > 100 µM (inactive) | > 100 µM (inactive) | > 100 µM (inactive) | > 100 µM (inactive) | 
3 | NCC(=O)N1CCN(c2nc(N3CCCC3)c3nc(Cl)c(NCc4ccccc4)nc3n2)CC1 | 1.85 µM (inactive) | 1.87 µM (inactive) |  | 1.56 µM (inactive) | 2.11 µM (inactive) |  | 1.71 µM (inactive) | 1.77 µM (inactive) | 1.78 µM (inactive) | 1.95 µM (inactive) | 2.09 µM (inactive) | 2.66 µM (inactive) | 2.23 µM (inactive) |  | 1.85 µM (inactive) | 3.66 µM (inactive) | 1.79 µM (inactive) | 1.81 µM (inactive) | 1.42 µM (inactive)
4 | COc1cc([C@@H]2c3cc4c(cc3C[C@@H]3COC(=O)C32)OCO4)cc(OC)c1O (some centres undefined) | < 0.01 µM (active) | 0.0284 µM (active) | 0.211 µM (active) | 0.03 µM (active) | 0.03 µM (active) | 0.031 µM (active) | 0.0432 µM (active) |  | 0.0119 µM (active) | 0.21 µM (active) | 0.038 µM (active) | 0.0306 µM (active) |  | 0.0269 µM (active) |  | 1.39 µM (inactive) | 0.0297 µM (active) | 0.0287 µM (active) | 
5 | COc1ccc(NCC(=O)Nn2c(C)nc3ccc(S(=O)(=O)Nc4ccc(OC)cc4)cc3c2=O)cc1 | > 100 µM (inactive) | > 100 µM (inactive) |  | > 100 µM (inactive) | > 100 µM (inactive) | > 100 µM (inactive) | > 100 µM (inactive) | > 100 µM (inactive) | > 100 µM (inactive) | > 100 µM (inactive) | > 100 µM (inactive) | > 100 µM (inactive) | > 100 µM (inactive) | > 100 µM (inactive) | > 100 µM (inactive) | > 100 µM (inactive) | > 100 µM (inactive) | > 100 µM (inactive) | 
6 | O=C(/C=C/c1ccc2c(c1)OCO2)c1ccc(O)cc1 | 14.8 µM (inactive) | 16.6 µM (inactive) | 23.4 µM (inactive) | 26.8 µM (inactive) | 20.2 µM (inactive) | 5.58 µM (inactive) | 13.8 µM (inactive) | 1.64 µM (inactive) | 3.01 µM (inactive) | 15.5 µM (inactive) | 14.2 µM (inactive) | 12.1 µM (inactive) | 19.3 µM (inactive) |  | 17.4 µM (inactive) | 18.5 µM (inactive) | 13.4 µM (inactive) | 16.5 µM (inactive) | 
7 | CC(C)[N+]([O-])(CCCNc1c2ccccc2nc2cccc([N+](=O)[O-])c12)C(C)C | < 0.0325 µM (active) | < 0.0367 µM (active) | < 0.0452 µM (active) | 0.0525 µM (active) | < 0.0441 µM (active) | < 0.0355 µM (active) | < 0.0453 µM (active) | < 0.0458 µM (active) | 0.0294 µM (active) | < 0.0206 µM (active) | < 0.0395 µM (active) | < 0.0258 µM (active) | < 0.01 µM (active) | < 0.0179 µM (active) | < 0.01 µM (active) | < 0.0456 µM (active) | < 0.0204 µM (active) | 0.262 µM (active) | 
8 | COc1ccc(/N=C2\S/C(=N\C(=N\c3ccccc3)SCc3ccccc3)N(c3ccccc3)\C2=N/c2ccc(OC)cc2)cc1 |  | > 100 µM (inactive) |  | > 100 µM (inactive) |  | > 100 µM (inactive) |  | > 100 µM (inactive) |  | > 100 µM (inactive) | > 100 µM (inactive) | > 100 µM (inactive) | 62.4 µM (inactive) | > 100 µM (inactive) | > 100 µM (inactive) | > 100 µM (inactive) | > 100 µM (inactive) |  | > 100 µM (inactive)
9 | Cc1ccc(C)n1-c1ccccc1C1C=Cn2c(=O)oc3c(OC(C)C)c(OC(C)C)c(O)c1c32 (centres undefined) | 6.1 µM (inactive) | 23.1 µM (inactive) | 43.8 µM (inactive) | 73.5 µM (inactive) | 33.3 µM (inactive) | 4.67 µM (inactive) | 25.8 µM (inactive) | 49.1 µM (inactive) | 7.06 µM (inactive) | 13.3 µM (inactive) | 43.5 µM (inactive) | 11.4 µM (inactive) | 28.6 µM (inactive) | 4.9 µM (inactive) | 5.13 µM (inactive) | 15.8 µM (inactive) | 8.26 µM (inactive) | > 100 µM (inactive) | 
10 | CN(/N=C/c1cccc2cccnc12)c1ccc(Cl)cc1[N+](=O)[O-] | > 100 µM (inactive) | > 100 µM (inactive) | > 100 µM (inactive) | > 100 µM (inactive) | > 100 µM (inactive) | > 100 µM (inactive) | > 100 µM (inactive) | > 100 µM (inactive) | > 100 µM (inactive) | > 100 µM (inactive) | > 100 µM (inactive) | > 100 µM (inactive) |  | > 100 µM (inactive) | > 100 µM (inactive) | > 100 µM (inactive) | > 100 µM (inactive) | > 100 µM (inactive) | 
11 | CC(C)(CNC(=O)/C(Cl)=C(/Cl)C(=O)O)CNC(=O)/C(Cl)=C(/Cl)C(=O)O | > 100 µM (inactive) | > 100 µM (inactive) | > 100 µM (inactive) | > 100 µM (inactive) | 28.4 µM (inactive) | 40.1 µM (inactive) | > 100 µM (inactive) | > 100 µM (inactive) | 29.1 µM (inactive) |  | > 100 µM (inactive) | 40.6 µM (inactive) | > 100 µM (inactive) | 22.6 µM (inactive) |  | > 100 µM (inactive) | 36.2 µM (inactive) | > 100 µM (inactive) | 92.7 µM (inactive)
12 | Nc1ccc(Oc2ccc(C3(c4ccc(Oc5ccc(N)cc5)cc4)C4CC5CC(C4)CC3C5)cc2)cc1 | 8.05 µM (inactive) | 9.53 µM (inactive) | 2.91 µM (inactive) | 11.8 µM (inactive) | 7.8 µM (inactive) | 3.89 µM (inactive) | 0.231 µM (active) | 9.18 µM (inactive) | 11 µM (inactive) | 13.8 µM (inactive) | 11.6 µM (inactive) | 4.26 µM (inactive) | 16.5 µM (inactive) | 3 µM (inactive) | 17 µM (inactive) | 19.9 µM (inactive) | 0.782 µM (active) |  | 
13 | O=c1[nH]nc(Cc2ccc(Cl)cc2)n1/N=C/c1c[nH]c2ccccc12 | > 100 µM (inactive) | > 100 µM (inactive) | > 100 µM (inactive) | > 100 µM (inactive) | > 100 µM (inactive) | > 100 µM (inactive) | > 100 µM (inactive) | > 100 µM (inactive) | > 100 µM (inactive) | > 100 µM (inactive) |  | > 100 µM (inactive) | > 100 µM (inactive) | 26.3 µM (inactive) | > 100 µM (inactive) | > 100 µM (inactive) | > 100 µM (inactive) | > 100 µM (inactive) | > 100 µM (inactive)
14 | CCC12CCCN(Cc3ccccc3)C1c1c([nH]c3ccccc13)C(C(=O)OC)C2 (centres undefined) | > 10 µM (inactive) |  |  | > 10 µM (inactive) | > 10 µM (inactive) | > 10 µM (inactive) | > 10 µM (inactive) | > 10 µM (inactive) | > 10 µM (inactive) | 8.38 µM (inactive) | > 10 µM (inactive) | > 10 µM (inactive) | > 10 µM (inactive) | > 10 µM (inactive) | > 10 µM (inactive) |  | 4.08 µM (inactive) | > 10 µM (inactive) | 5.75 µM (inactive)
15 | CCOC(=O)C(O)(CC1=NC(C(=O)OC)(C(=O)OC)C(c2cccc(C=O)c2)O1)C(=O)OCC (centres undefined) | > 100 µM (inactive) | > 100 µM (inactive) | > 100 µM (inactive) | > 100 µM (inactive) | > 100 µM (inactive) | > 100 µM (inactive) | > 100 µM (inactive) | > 100 µM (inactive) |  | > 100 µM (inactive) | > 100 µM (inactive) | > 100 µM (inactive) | > 100 µM (inactive) | > 100 µM (inactive) |  | > 100 µM (inactive) | > 100 µM (inactive) | > 100 µM (inactive) | > 100 µM (inactive)
16 | Cc1cn(CCCC2=NCCCN2)c(=O)[nH]c1=O | > 100 µM (inactive) | > 100 µM (inactive) | > 100 µM (inactive) | > 100 µM (inactive) | > 100 µM (inactive) | > 100 µM (inactive) | > 100 µM (inactive) | > 100 µM (inactive) | > 100 µM (inactive) | > 100 µM (inactive) |  | > 100 µM (inactive) | > 100 µM (inactive) | 79.1 µM (inactive) | > 100 µM (inactive) | > 100 µM (inactive) | > 100 µM (inactive) | > 100 µM (inactive) | > 100 µM (inactive)

From ChEMBL document CHEMBL1201862, “PubChem BioAssay data set” (2004)
